Reference: patent US11634393B2, “Substituted tolyl fungicides” (FMC CORPORATION, priority 2018, dated 2023)

How the values were obtained:
Zymoseptoria tritici = assay: Test A: wheat leaf blotch, spray on wheat seedlings, disease control rating; format: in vivo; conditions: Rate 250 ppm, 100 = 100% disease control, 0 = no disease control relative to the controls
From the text: (§1) General protocol for preparing test suspensions for Tests A-F: the test compounds were first dissolved in acetone in an amount equal to 3% of the final volume and then suspended at the desired concentration (in ppm) in acetone and purified water (50/50 mix by volume) containing 250 ppm of the surfactant PEG400 (polyhydric alcohol esters). The resulting test suspensions were then used in Tests A-F.
The test solution was sprayed to the point of run-off on wheat seedlings. The following day the seedlings were inoculated with a spore suspension of Zymoseptoria tritici (the causal agent of wheat leaf blotch) and incubated in a saturated atmosphere at 24° C. for 48 h, and then moved to a growth chamber at 20° C. for 17 days, after which time disease ratings were made.
(§2) A rating of 100 indicates 100% disease control and a rating of 0 indicates no disease control (relative to the controls). A dash (-) indicates the compound was not tested.

Phakopsora pachyrhizi = assay: Test D: Asian soybean rust, spray on soybean seedlings, disease control rating; format: in vivo; conditions: Phakopsora pachyrhizi, 216 h; Rate 250 ppm; 100 = 100% disease control, 0 = no disease control relative to the controls
Method in brief: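 Soybean seedlings sprayed to run-off with compound suspension (ppm, in 50/50 acetone/water with 250 ppm PEG400), inoculated next day with P. pachyrhizi spores, held 24 h saturated at 22°C then 8 days at 22°C. Visual rating 0-100% disease control relative to controls.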

[1] = test system: Puccinia recondita f. sp. tritici; assay: Test B: wheat leaf rust, spray on wheat seedlings, disease control rating; format: in vivo; conditions: Puccinia recondita, 192 h; Rate 250 ppm; 100 = 100% disease control, 0 = no disease control relative to the controls
Method in brief: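 Compound in acetone (3% of final volume) was suspended at the stated ppm in acetone/water 50/50 with 250 ppm PEG400 and sprayed to run-off on wheat seedlings. Puccinia recondita spores were inoculated next day, then 24 h saturated atmosphere at 20 °C and 7 days at 20 °C. Rated 0–100% disease control versus controls.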

[2] = test system: Blumeria graminis f. sp. tritici; assay: Test C: wheat powdery mildew, spray on wheat seedlings, disease control rating; format: in vivo; conditions: 192 h, Rate 250 ppm, 100 = 100% disease control, 0 = no disease control relative to the controls
From the text: as §1
The test suspension was sprayed to the point of run-off on wheat seedlings. The following day the seedlings were inoculated with a spore dust of Blumeria graminis f. sp. tritici, (also known as Erysiphe graminis f. sp. tritici, the causal agent of wheat powdery mildew) and incubated in a growth chamber at 20° C. for 8 days, after which time visual disease ratings were made.
as §2

Botrytis cinerea = assay: Test E: tomato Botrytis, spray on tomato seedlings, disease control rating; format: in vivo; conditions: Rate 250 ppm, 100 = 100% disease control, 0 = no disease control relative to the controls
From the text: as §1
The test suspension was sprayed to the point of run-off on tomato seedlings. The following day the seedlings were inoculated with a spore suspension of Botrytis cinerea (the causal agent of tomato Botrytis) and incubated in a saturated atmosphere at 20° C. for 48 h, and then moved to a growth chamber at 24° C. for 3 days, after which time visual disease ratings were made.
as §2

Structure (SMILES): COC(=O)NCc1cc(-c2cn(-c3c(F)cc(F)cc3Cl)nn2)ccc1C [Compound 122]
- pest or weed control at 250 ppm (Zymoseptoria tritici): 71%
- pest or weed control at 250 ppm (Phakopsora pachyrhizi): 100%
- pest or weed control at 250 ppm [1]: 99%
- melting point: 125 to 129 °C
- pest or weed control at 250 ppm [2]: 0%
- pest or weed control at 250 ppm (Botrytis cinerea): 0%
